≈ marks a conversion by molar mass, not a printed value. Calls of active or inactive are those of the source. No cut-off for these calls is given here.
Biological target: T1, Cyclin-dependent kinase 2/cyclin A (Homo sapiens) (UniProt P24941+P20248+P78396)
Test: Inhibition of hyperphosphorylation of pRb by CDK2/cyclin A at 3 uM
Type: functional
Settings: not given

| SMILES | Activity |
| --- | --- |
| CCCCNC(=O)N1Cc2n[nH]c(NC(=O)[C@@H](C)c3ccc4ccccc4c3)c2C1 | Active |

Test system: HT-29
Test: Cell cycle arrest in HT29 cells by accumulation at G1/S phase
Type: functional, cell-based
Settings: Homo sapiens

| SMILES | Activity |
| --- | --- |
| CCCCNC(=O)N1Cc2n[nH]c(NC(=O)[C@@H](C)c3ccc4ccccc4c3)c2C1 | Active |
| CCCCNC(=O)N1Cc2n[nH]c(NC(=O)Cc3ccc(N4CCCC4)cc3)c2C1 | Active |

Test system: HCT-116
Test: Antiproliferative activity against HCT116 cells
Type: functional, cell-based
Settings: Homo sapiens

| SMILES | IC50 [nM] |
| --- | --- |
| CCCCNC(=O)N1Cc2n[nH]c(NC(=O)[C@@H](C)c3ccc4ccccc4c3)c2C1 | 120 |
| CCCCNC(=O)N1Cc2n[nH]c(NC(=O)Cc3ccc(N4CCCC4)cc3)c2C1 | 900 |

Biological target: Cyclin-dependent kinase 5/CDK5 activator 1 (Homo sapiens, UniProt Q00535)
Test: Inhibitory activity against CDK5/p25
Type: protein-complex assay
Settings: not given

Sequence of Cyclin-dependent kinase 5/CDK5 activator 1 (Q00535 whole entry): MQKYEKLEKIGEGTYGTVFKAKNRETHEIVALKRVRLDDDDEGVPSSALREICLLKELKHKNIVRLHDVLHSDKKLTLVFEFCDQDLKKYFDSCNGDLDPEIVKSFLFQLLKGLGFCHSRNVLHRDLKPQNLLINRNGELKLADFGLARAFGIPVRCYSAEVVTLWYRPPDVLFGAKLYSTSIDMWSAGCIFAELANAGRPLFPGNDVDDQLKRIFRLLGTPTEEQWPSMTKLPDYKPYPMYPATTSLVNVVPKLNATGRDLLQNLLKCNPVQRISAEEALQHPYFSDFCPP
Sequence of Cyclin-dependent kinase 5/CDK5 activator 1 (Q15078 whole entry, further chain): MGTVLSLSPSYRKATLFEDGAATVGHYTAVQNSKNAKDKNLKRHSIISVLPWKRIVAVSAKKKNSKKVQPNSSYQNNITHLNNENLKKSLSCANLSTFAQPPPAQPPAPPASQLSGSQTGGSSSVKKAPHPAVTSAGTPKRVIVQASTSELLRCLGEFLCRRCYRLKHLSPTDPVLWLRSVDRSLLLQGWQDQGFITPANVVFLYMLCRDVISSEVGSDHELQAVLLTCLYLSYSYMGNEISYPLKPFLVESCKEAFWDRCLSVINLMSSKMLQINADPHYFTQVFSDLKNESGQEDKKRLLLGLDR

| SMILES | IC50 [nM] |
| --- | --- |
| CCCCNC(=O)N1Cc2n[nH]c(NC(=O)[C@@H](C)c3ccc4ccccc4c3)c2C1 | 150 |

Biological target: Cyclin-dependent kinase 2/cyclin A (Homo sapiens, UniProt P24941)
Test: Inhibitory activity against CDK2/Cyclin A
Type: protein-complex assay
Settings: not given

| SMILES | IC50 [nM] |
| --- | --- |
| CC(C)NC(=O)N1Cc2n[nH]c(NC(=O)c3ccc4c(c3)OCO4)c2C1 | 120 |
| CC(C)C(=O)N1Cc2n[nH]c(NC(=O)c3ccc4c(c3)OCO4)c2C1 | 430 |
| NC(=O)N1Cc2n[nH]c(NC(=O)Cc3ccccc3)c2C1 | 30 |
| CC(=O)N1Cc2n[nH]c(NC(=O)c3cccc(F)c3)c2C1 | 2110 |
| CCCCNC(=O)N1Cc2n[nH]c(NC(=O)Cc3ccccc3F)c2C1 | 51 |
| Cc1ccc(C(=O)Nc2[nH]nc3c2CN(C(=O)c2cccc4cccnc24)C3)cc1 | 1050 |
| CCCCNC(=O)N1Cc2n[nH]c(NC(=O)[C@@H](C)c3ccc4ccccc4c3)c2C1 | 36 |
| CCCCNC(=O)N1Cc2n[nH]c(NC(=O)Cc3ccc4ccccc4c3)c2C1 | 45 |
| CC(=O)N1Cc2n[nH]c(NC(=O)c3ccc4c(c3)OCO4)c2C1 | 2760 |
| O=C(Cc1ccccc1)Nc1[nH]nc2c1CN(C(=O)Nc1ccccc1)C2 | 730 |
| CCCCNC(=O)N1Cc2n[nH]c(NC(=O)Cc3ccc(N4CCCC4)cc3)c2C1 | 33 |
| COc1ccc(C(=O)Nc2[nH]nc3c2CN(C(C)=O)C3)cc1 | 1370 |

Further molecules by falling IC50, results first:

| IC50 [nM] | SMILES |
| --- | --- |
| 2540 | CC(=O)N1Cc2n[nH]c(NC(=O)c3ccc(F)cc3)c2C1 |
| 1590 | CC(=O)N1Cc2n[nH]c(NC(=O)c3ccc(C#N)cc3)c2C1 |
| 1150 | CC(=O)N1Cc2n[nH]c(NC(=O)c3ccccc3)c2C1 |
| 1080 | CC(=O)N1Cc2n[nH]c(NC(=O)c3ccc(C)cc3)c2C1 |
| 440 | CC(=O)N1Cc2n[nH]c(NC(=O)Cc3ccccc3)c2C1 |
| 51 | CCCCNC(=O)N1Cc2n[nH]c(NC(=O)Cc3ccc(N4CCCC4=O)cc3)c2C1 |

Biological target: Cytochrome P450 3A4 (Homo sapiens, UniProt P08684)
Test: Metabolic stability in presence of CYP3A4
Type: ADME
Settings: not given

Sequence of Cytochrome P450 3A4 (P08684 whole entry): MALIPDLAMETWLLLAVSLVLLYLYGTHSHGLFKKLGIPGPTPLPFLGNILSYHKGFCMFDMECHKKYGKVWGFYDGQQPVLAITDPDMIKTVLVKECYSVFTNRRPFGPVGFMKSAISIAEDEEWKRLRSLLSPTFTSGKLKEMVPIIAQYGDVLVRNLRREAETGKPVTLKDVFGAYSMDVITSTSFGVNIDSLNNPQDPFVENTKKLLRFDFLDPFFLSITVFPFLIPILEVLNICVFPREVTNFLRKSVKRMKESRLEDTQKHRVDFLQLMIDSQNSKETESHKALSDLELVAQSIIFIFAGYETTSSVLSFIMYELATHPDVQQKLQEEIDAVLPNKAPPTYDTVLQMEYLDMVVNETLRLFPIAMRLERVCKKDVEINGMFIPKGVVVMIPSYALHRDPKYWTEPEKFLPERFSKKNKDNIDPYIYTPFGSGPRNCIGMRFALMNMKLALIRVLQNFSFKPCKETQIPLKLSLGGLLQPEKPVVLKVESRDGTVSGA

| SMILES | Stability [%] |
| --- | --- |
| CCCCNC(=O)N1Cc2n[nH]c(NC(=O)[C@@H](C)c3ccc4ccccc4c3)c2C1 | 20 |
| CCCCNC(=O)N1Cc2n[nH]c(NC(=O)Cc3ccc(N4CCCC4)cc3)c2C1 | 100 |

Test system: HT-29
Test: Antiproliferative activity against HT29 cells
Type: functional, cell-based
Settings: Homo sapiens

| SMILES | IC50 [nM] |
| --- | --- |
| CCCCNC(=O)N1Cc2n[nH]c(NC(=O)[C@@H](C)c3ccc4ccccc4c3)c2C1 | 70 |
| CCCCNC(=O)N1Cc2n[nH]c(NC(=O)Cc3ccc(N4CCCC4)cc3)c2C1 | 200 |

Test system: not listed separately
Test: Plasma protein binding
Type: ADME, cell-free
Settings: human, read-out: PPB (converted)

| SMILES | fraction unbound |
| --- | --- |
| CCCCNC(=O)N1Cc2n[nH]c(NC(=O)[C@@H](C)c3ccc4ccccc4c3)c2C1 | 0.01 |
| CCCCNC(=O)N1Cc2n[nH]c(NC(=O)Cc3ccc(N4CCCC4)cc3)c2C1 | 0.05 |

Biological target: Glycogen synthase kinase-3 beta (Homo sapiens, UniProt P49841)
Test: Inhibitory activity against GSK3-beta
Settings: not given

Sequence of Glycogen synthase kinase-3 beta (P49841 whole entry): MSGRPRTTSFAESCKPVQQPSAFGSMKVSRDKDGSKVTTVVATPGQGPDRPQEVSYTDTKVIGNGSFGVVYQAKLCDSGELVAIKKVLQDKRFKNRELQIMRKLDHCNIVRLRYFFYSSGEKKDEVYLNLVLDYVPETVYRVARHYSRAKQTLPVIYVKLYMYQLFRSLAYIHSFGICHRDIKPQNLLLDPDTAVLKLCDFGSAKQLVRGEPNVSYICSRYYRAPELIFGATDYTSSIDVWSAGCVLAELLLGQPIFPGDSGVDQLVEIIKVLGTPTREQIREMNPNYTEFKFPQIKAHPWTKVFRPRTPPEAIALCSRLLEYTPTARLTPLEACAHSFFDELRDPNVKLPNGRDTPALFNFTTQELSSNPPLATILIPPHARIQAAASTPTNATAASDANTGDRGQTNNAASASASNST

| SMILES | IC50 [nM] |
| --- | --- |
| CCCCNC(=O)N1Cc2n[nH]c(NC(=O)[C@@H](C)c3ccc4ccccc4c3)c2C1 | 50 |
| CCCCNC(=O)N1Cc2n[nH]c(NC(=O)Cc3ccc(N4CCCC4)cc3)c2C1 | 300 |

Biological target: Mitogen-activated protein kinase 1 (Homo sapiens, UniProt P28482)
Test: Inhibitory activity against p42MAPK
Settings: not given

Sequence of Mitogen-activated protein kinase 1 (P28482 whole entry): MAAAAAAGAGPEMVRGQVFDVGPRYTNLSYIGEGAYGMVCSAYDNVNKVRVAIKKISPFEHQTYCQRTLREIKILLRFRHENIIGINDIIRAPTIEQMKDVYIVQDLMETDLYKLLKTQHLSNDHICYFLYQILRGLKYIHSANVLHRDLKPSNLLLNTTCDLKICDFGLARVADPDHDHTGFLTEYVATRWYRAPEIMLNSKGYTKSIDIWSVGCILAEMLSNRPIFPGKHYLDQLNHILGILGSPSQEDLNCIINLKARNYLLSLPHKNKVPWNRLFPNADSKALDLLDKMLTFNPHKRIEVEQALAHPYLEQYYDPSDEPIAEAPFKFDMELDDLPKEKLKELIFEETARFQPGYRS

| SMILES | IC50 [nM] |
| --- | --- |
| CCCCNC(=O)N1Cc2n[nH]c(NC(=O)[C@@H](C)c3ccc4ccccc4c3)c2C1 | 380 |
| CCCCNC(=O)N1Cc2n[nH]c(NC(=O)Cc3ccc(N4CCCC4)cc3)c2C1 | 280 |

Biological target: T1, Cyclin-dependent kinase 2/cyclin A (Homo sapiens)
Test: Inhibition of hyperphosphorylation of pRb by CDK2/cyclin A at 1 uM
Type: functional
Settings: not given

| SMILES | Activity |
| --- | --- |
| CCCCNC(=O)N1Cc2n[nH]c(NC(=O)Cc3ccc(N4CCCC4)cc3)c2C1 | Active |

Test system: A2780
Test: Antiproliferative activity against A2780 cells
Type: functional, cell-based
Settings: Homo sapiens

| SMILES | IC50 [nM] |
| --- | --- |
| CCCCNC(=O)N1Cc2n[nH]c(NC(=O)Cc3ccc(N4CCCC4=O)cc3)c2C1 | 8270 |
| CCCCNC(=O)N1Cc2n[nH]c(NC(=O)[C@@H](C)c3ccc4ccccc4c3)c2C1 | 130 |
| CCCCNC(=O)N1Cc2n[nH]c(NC(=O)Cc3ccc4ccccc4c3)c2C1 | 540 |
| CCCCNC(=O)N1Cc2n[nH]c(NC(=O)Cc3ccc(N4CCCC4)cc3)c2C1 | 940 |

Test system: not listed separately
Test: Solubility in buffer
Type: physicochemical
Settings: not given

| SMILES | solubility [µM] |
| --- | --- |
| CCCCNC(=O)N1Cc2n[nH]c(NC(=O)[C@@H](C)c3ccc4ccccc4c3)c2C1 | 27 (≈ 10.9 µg/mL) |
| CCCCNC(=O)N1Cc2n[nH]c(NC(=O)Cc3ccc(N4CCCC4)cc3)c2C1 | 39 (≈ 16 µg/mL) |

Biological target: Cyclin-dependent kinase 2/cyclin E (Homo sapiens, UniProt P24941)
Test: Inhibitory activity against CDK2/Cyclin E
Type: protein-complex assay
Settings: not given

| SMILES | IC50 [nM] |
| --- | --- |
| CCCCNC(=O)N1Cc2n[nH]c(NC(=O)[C@@H](C)c3ccc4ccccc4c3)c2C1 | 90 |
| CCCCNC(=O)N1Cc2n[nH]c(NC(=O)Cc3ccc(N4CCCC4)cc3)c2C1 | 91 |

Biological target: Cyclin-dependent kinase 4/cyclin D1 (Homo sapiens, UniProt P11802)
Test: Inhibitory activity against CDK4/Cyclin D1
Type: protein-complex assay
Settings: not given

Sequence of Cyclin-dependent kinase 4/cyclin D1 (P11802 whole entry): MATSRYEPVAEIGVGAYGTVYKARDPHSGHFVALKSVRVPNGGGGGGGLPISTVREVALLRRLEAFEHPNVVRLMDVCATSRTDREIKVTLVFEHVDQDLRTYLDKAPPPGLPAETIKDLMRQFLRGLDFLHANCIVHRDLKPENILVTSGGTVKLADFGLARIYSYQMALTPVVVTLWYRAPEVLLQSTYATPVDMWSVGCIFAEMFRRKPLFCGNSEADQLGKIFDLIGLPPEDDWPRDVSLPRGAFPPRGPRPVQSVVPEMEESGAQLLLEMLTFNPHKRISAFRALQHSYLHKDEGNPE
Sequence of Cyclin-dependent kinase 4/cyclin D1 (P24385 whole entry, further chain): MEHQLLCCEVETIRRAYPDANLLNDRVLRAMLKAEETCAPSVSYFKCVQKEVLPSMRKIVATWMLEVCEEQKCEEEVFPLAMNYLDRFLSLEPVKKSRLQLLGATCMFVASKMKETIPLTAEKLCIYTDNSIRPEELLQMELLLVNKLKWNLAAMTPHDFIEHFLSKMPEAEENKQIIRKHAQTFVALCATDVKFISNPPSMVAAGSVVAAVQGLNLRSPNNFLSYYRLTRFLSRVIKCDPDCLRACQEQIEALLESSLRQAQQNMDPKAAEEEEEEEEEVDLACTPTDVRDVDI

| SMILES | IC50 [nM] |
| --- | --- |
| CCCCNC(=O)N1Cc2n[nH]c(NC(=O)[C@@H](C)c3ccc4ccccc4c3)c2C1 | > 10000 |
| CCCCNC(=O)N1Cc2n[nH]c(NC(=O)Cc3ccc(N4CCCC4)cc3)c2C1 | > 10000 |

Biological target: Cyclin-dependent kinase 1/cyclin B (Homo sapiens, UniProt P06493)
Test: Inhibitory activity against CDK1/Cyclin B
Type: protein-complex assay
Settings: not given

| SMILES | IC50 [nM] |
| --- | --- |
| CCCCNC(=O)N1Cc2n[nH]c(NC(=O)[C@@H](C)c3ccc4ccccc4c3)c2C1 | 750 |
| CCCCNC(=O)N1Cc2n[nH]c(NC(=O)Cc3ccc(N4CCCC4)cc3)c2C1 | 400 |

Test system: HT-29
Test: Incorporation of BrdU in HT29 cells
Type: functional, cell-based
Settings: Homo sapiens

| SMILES | Activity |
| --- | --- |
| CCCCNC(=O)N1Cc2n[nH]c(NC(=O)[C@@H](C)c3ccc4ccccc4c3)c2C1 | inactive |
| CCCCNC(=O)N1Cc2n[nH]c(NC(=O)Cc3ccc(N4CCCC4)cc3)c2C1 | inactive |

Biological target: T2, Aurora kinase A (Homo sapiens, UniProt O14965)
T2 sequence (O14965 whole entry): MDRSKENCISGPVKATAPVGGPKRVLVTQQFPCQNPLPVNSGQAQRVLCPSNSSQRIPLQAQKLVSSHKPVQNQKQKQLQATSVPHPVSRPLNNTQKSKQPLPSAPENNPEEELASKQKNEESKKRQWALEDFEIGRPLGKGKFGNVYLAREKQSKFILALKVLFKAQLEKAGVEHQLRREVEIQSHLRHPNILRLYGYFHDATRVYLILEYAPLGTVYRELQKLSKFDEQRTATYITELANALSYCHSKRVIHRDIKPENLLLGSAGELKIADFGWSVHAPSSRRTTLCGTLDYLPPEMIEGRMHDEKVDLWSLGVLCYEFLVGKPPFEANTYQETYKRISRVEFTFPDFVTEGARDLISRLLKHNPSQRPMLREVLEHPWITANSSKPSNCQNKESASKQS
Test: Inhibitory activity against Aurora A kinase
Settings: not given

| SMILES | IC50 [nM] |
| --- | --- |
| CC(C)NC(=O)N1Cc2n[nH]c(NC(=O)c3ccc4c(c3)OCO4)c2C1 | 390 |
| CC(C)C(=O)N1Cc2n[nH]c(NC(=O)c3ccc4c(c3)OCO4)c2C1 | 160 |
| NC(=O)N1Cc2n[nH]c(NC(=O)Cc3ccccc3)c2C1 | > 10000 |
| CC(=O)N1Cc2n[nH]c(NC(=O)c3cccc(F)c3)c2C1 | 4850 |
| CCCCNC(=O)N1Cc2n[nH]c(NC(=O)Cc3ccccc3F)c2C1 | > 10000 |
| Cc1ccc(C(=O)Nc2[nH]nc3c2CN(C(=O)c2cccc4cccnc24)C3)cc1 | 440 |
| CCCCNC(=O)N1Cc2n[nH]c(NC(=O)[C@@H](C)c3ccc4ccccc4c3)c2C1 | > 10000 |
| CCCCNC(=O)N1Cc2n[nH]c(NC(=O)Cc3ccc4ccccc4c3)c2C1 | > 10000 |
| CC(=O)N1Cc2n[nH]c(NC(=O)c3ccc4c(c3)OCO4)c2C1 | > 10000 |
| O=C(Cc1ccccc1)Nc1[nH]nc2c1CN(C(=O)Nc1ccccc1)C2 | > 10000 |
| CCCCNC(=O)N1Cc2n[nH]c(NC(=O)Cc3ccc(N4CCCC4)cc3)c2C1 | 4200 |
| COc1ccc(C(=O)Nc2[nH]nc3c2CN(C(C)=O)C3)cc1 | 660 |

The next lines start with the values.

| IC50 [nM] | SMILES |
| --- | --- |
| > 10000 | CC(=O)N1Cc2n[nH]c(NC(=O)c3ccc(F)cc3)c2C1 |
| 8500 | CC(=O)N1Cc2n[nH]c(NC(=O)c3ccc(C#N)cc3)c2C1 |
| 3110 | CC(=O)N1Cc2n[nH]c(NC(=O)c3ccccc3)c2C1 |
| 2140 | CC(=O)N1Cc2n[nH]c(NC(=O)c3ccc(C)cc3)c2C1 |
| 2310 | CC(=O)N1Cc2n[nH]c(NC(=O)Cc3ccccc3)c2C1 |
| > 10000 | CCCCNC(=O)N1Cc2n[nH]c(NC(=O)Cc3ccc(N4CCCC4=O)cc3)c2C1 |
